According to patent US11866460B2 (priority 2015, dated 2024):
pEC50: −log10 of the molar value. “And” between values parts separate entries of the source, which are not always exact repeats. Equal entries are not always repeated. Where two headings read alike, the source gives them in different places. Where a SMILES comes first, the peptide text is derived from it. Where no end group is shown, it is not given here.

What was measured:
CHIKV 181/25 [1] = assay: microbe, parasite or virus in culture; settings: Chikungunya virus, Vero
CHIKV 181/25 [2] = system: CHIKV 181/25
in vitro = settings: African green monkey
DENV-3 H87 [3] = system: DENV-3 H87
YFV 17D [4] = system: YFV 17D
DENV-1 PRS41393 [5] = system: DENV-1 PRS41393
DENV-2 New Guinea C [6] = system: DENV-2 New Guinea C
DENV-4 H241 [7] = system: DENV-4 H241
DENV-4 H241 [8] = assay: microbe, parasite or virus in culture; settings: Dengue virus, DENV4, Vero
DENV-2 New Guinea C [9] = assay: microbe, parasite or virus in culture; settings: Dengue virus, DENV2, Vero
YFV 17D [10] = assay: microbe, parasite or virus in culture; settings: Yellow fever virus, Vero
LACV H44-71017 = assay: organism not typed; format: cell-based, LaCrosse encephalitis virus; settings: Vero
DENV-3 H87 [11] = assay: microbe, parasite or virus in culture; settings: Dengue virus, DENV3, Vero, 0 h
RVFV MP12 = assay: microbe, parasite or virus in culture; settings: Rift Valley fever virus, Vero, 0 h
JUNV Candid #1 = assay: microbe, parasite or virus in culture; settings: Mammarenavirus juninense, Vero
Vero cells = settings: African green monkey
DENV-1 PRS41393 [12] = assay: microbe, parasite or virus in culture; settings: Dengue virus, DENV1, Vero
[13] = system: panel of enveloped viruses (DENV, JEV, YFV, CHIKV and others)
[14] = system: influenza A/Hong Kong/1/1968 virus (H3N2); assay: microbe, parasite or virus in culture; settings: H3N2, MDCK
[15] = read-out: EC50 Values for the Indicated Virus

Work on `O=c1cnn([C@@H]2O[C@H](CO)[C@@H](O)[C@H]2O)c(=O)[nH]1` [6-azauridine] yielded a pEC50 (CHIKV 181/25 [1]) of 6.54.

In the case of `CC[C@H](C)[C@H](NC(=O)[C@H](Cc1c[nH]c2ccccc12)NC(=O)[C@H](CC(=O)O)NC(=O)[C@H](Cc1c[nH]c2ccccc12)NC(=O)[C@@H](NC(=O)[C@H](CC(=O)O)NC(=O)[C@H](CCCNC(=N)N)NC(=O)[C@H](CC(C)C)NC(=O)[C@H](Cc1c[nH]c2ccccc12)NC(=O)[C@H](CO)NC(=O)CNC(=O)[C@@H](N)CO)C(C)C)C(=O)N[C@@H](CS)C(=O)N[C@H](C(=O)N[C@H](C(=O)N[C@@H](CC(C)C)C(=O)N[C@H](C(=O)N[C@@H](CC(=O)O)C(=O)N[C@@H](Cc1ccccc1)C(=O)N[C@@H](CCCCN)C(=O)N[C@H](C(=O)N[C@@H](Cc1c[nH]c2ccccc12)C(=O)N[C@@H](CC(C)C)C(=O)N[C@@H](CCC(N)=O)C(=O)N[C@@H](CO)C(=O)N[C@@H](CCCCN)C(=O)N[C@@H](CC(C)C)C(=O)O)[C@@H](C)O)[C@@H](C)O)C(C)C)[C@@H](C)O` [AH, reference compound], the “Therapeutic Index (CC50/EC50)” value (CHIKV 181/25 [2]) was 21.21, the “Therapeutic Index (CC50/EC50)” value (JEV 14-14-2) was 236.04 and the pEC50 (in vitro) was 3.89. The CC50 (in vitro) was 192 µM, the “Therapeutic Index (CC50/EC50)” value (DENV-3 H87 [3]; -3 H87) was 17.65 and the “Therapeutic Index (CC50/EC50)” value (YFV 17D [4]) was 5.87. The “Therapeutic Index (CC50/EC50)” value (DENV-1 PRS41393 [5]; -1 PRS41393) was 49.98, the “Therapeutic Index (CC50/EC50)” value (DENV-2 New Guinea C [6]; -2 New Guinea C) was 708.11 and the “Therapeutic Index (CC50/EC50)” value (DENV-4 H241 [7]; -4 H241) was 36.84. It also gave an MHC (human erythrocyte cells) of 50 µM.

With `Nc1ccn(C[C@@H](CO)OCP(=O)(O)O)c(=O)n1` [Cidofovir] the CC50 (in vitro) was over 375 µM.

Compound `NC(=O)c1ncn([C@@H]2O[C@H](CO)[C@@H](O)[C@H]2O)n1` [Ribavirin] has a pEC50 (DENV-4 H241 [8]) of 3.60, a pEC50 (DENV-4 H241 [8]; 0 h) of 3.40 and a pEC50 (DENV-2 New Guinea C [9]) of 3.57. For the same compound, the pEC50 (DENV-2 New Guinea C [9]; 0 h) was 3.44, the pEC50 (YFV 17D [10]) was 3.69 and the pEC50 (YFV 17D [10]; 0 h) was 3.59. It also gave a CC50 (in vitro) of over 750 µM, a pEC50 (LACV H44-71017) of 3.79 and a pEC50 (LACV H44-71017; 0 h) of 3.84. The pEC50 (DENV-3 H87 [11]) was 3.75, the pEC50 (RVFV MP12) was 3.85 and the pEC50 (YFV 17D [4]) was 3.67 and 3.77. For the same compound, the pEC50 (DENV-2 New Guinea C [6]) was 3.69 and 3.73, the pEC50 (JUNV Candid #1) was 4.14 and the pEC50 (JUNV Candid #1; 0 h) was 4.20. The CC50 (Vero cells) was 577 µM, the pEC50 (DENV-4 H241 [7]) was 3.68 and 3.55 and the pEC50 (DENV-1 PRS41393 [12]) was 3.84. The pEC50 (DENV-1 PRS41393 [12]; 0 h) was 3.69.

Compound `CC(C)C[C@H](NC(=O)[C@H](CCCCN)NC(=O)[C@H](CO)NC(=O)[C@H](CCC(N)=O)NC(=O)[C@H](CC(C)C)NC(=O)[C@H](Cc1c[nH]c2ccccc12)NC(=O)[C@@H](NC(=O)[C@H](Cc1c[nH]c2ccccc12)NC(=O)[C@@H](NC(=O)[C@H](CC(=O)O)NC(=O)[C@H](CCCNC(=N)N)NC(=O)[C@H](CC(C)C)NC(=O)[C@H](Cc1c[nH]c2ccccc12)NC(=O)[C@H](CO)NC(=O)CNC(=O)[C@H](CO)NC(=O)CCOCCOCCOCCOCCOCCOCCOCCOCCOCCOCCOCCOCCNC(=O)CCOCCOCCOCCOCCOCCOCCOCCOCCOCCOCCOCCOCCN)C(C)C)[C@@H](C)O)C(N)=O` [TSGX1X] (HELM PEPTIDE1{[NCCOCCOCCOCCOCCOCCOCCOCCOCCOCCOCCOCCOCCC(=O)[*:2]].[O=C(CCOCCOCCOCCOCCOCCOCCOCCOCCOCCOCCOCCOCCN[*:1])[*:2]].S.G.S.W.L.R.D.V.W.T.W.L.Q.S.K.L.[am]}$$$$V2.0) has a pEC50 (CHIKV 181/25 [2]; 0 h) of 4.56, a pEC50 (JEV 14-14-2; 0 h) of 5.90 and a pEC50 (Marburg virus (MARV)) of 4.84. For the same compound, the pEC50 (Marburg virus (MARV); [15]) was 4.84, the pEC50 (Ebola virus (EBOV)) was 4.87 and the pEC50 (Ebola virus (EBOV); [15]) was 4.87. The pEC50 (DENV-3 H87 [3]) was 5.64, the pEC50 (YFV 17D [4]) was 4.65 and the “antiviral activities of pegylated peptides” value [13] was “reduced”. For the same compound, the “antiviral activity of pegylated peptides” value [13] was “preserve strong antiviral activity”, the “efficacy against infection” value [13] was “effective” and the pEC50 (DENV-1 PRS41393 [5]) was 5.30. The pEC50 (DENV-2 New Guinea C [6]) was 5.41 and the pEC50 (DENV-4 H241 [7]) was 5.45.

Work on `CC(C)C[C@H](NC(=O)[C@H](CCCCN)NC(=O)[C@H](CO)NC(=O)[C@H](CCC(N)=O)NC(=O)[C@H](CC(C)C)NC(=O)[C@H](Cc1c[nH]c2ccccc12)NC(=O)[C@@H](NC(=O)[C@H](Cc1c[nH]c2ccccc12)NC(=O)[C@@H](NC(=O)[C@H](CC(=O)O)NC(=O)[C@H](CCCNC(=N)N)NC(=O)[C@H](CC(C)C)NC(=O)[C@H](Cc1c[nH]c2ccccc12)NC(=O)[C@H](CO)NC(=O)[C@H](CO)NC(=O)CNC(=O)CCOCCOCCOCCOCCOCCOCCOCCOCCOCCOCCOCCOCCNC(=O)CCOCCOCCOCCOCCOCCOCCOCCOCCOCCOCCOCCOCCN)C(C)C)[C@@H](C)O)C(N)=O` [TSGX2X] (HELM PEPTIDE1{[NCCOCCOCCOCCOCCOCCOCCOCCOCCOCCOCCOCCOCCC(=O)[*:2]].[O=C(CCOCCOCCOCCOCCOCCOCCOCCOCCOCCOCCOCCOCCN[*:1])[*:2]].G.S.S.W.L.R.D.V.W.T.W.L.Q.S.K.L.[am]}$$$$V2.0) yielded a pEC50 (Marburg virus (MARV)) of 4.35, a pEC50 (Marburg virus (MARV); [15]) of 4.35 and a pEC50 (Ebola virus (EBOV)) of 4.52. For the same compound, the pEC50 (Ebola virus (EBOV); [15]) was 4.52, the “antiviral activities of pegylated peptides” value [13] was “reduced” and the “antiviral activity of pegylated peptides” value [13] was “preserve strong antiviral activity”. For the same compound, the “efficacy against infection” value [13] was “effective”.

In the case of `CC(=O)N[C@H]1[C@H]([C@H](O)[C@H](O)CO)OC(C(=O)O)=C[C@@H]1N=C(N)N` [Zanamivir], the pEC50 [14] was 5.35.

For AGSWLRDILTLLQSAL [TSG009], the “MIC in PB” value (S. aureus (ATCC 25923); 10 mM potassium phosphate buffer, pH 7.2) was 1.5 µM, the “MIC in PBS” value (S. aureus (ATCC 25923); phosphate-buffered saline) was 1.5 µM and the MHC (human erythrocyte cells) was 1.5 µM.
